# Measured values reported in publication PMC13544220, “Glycemic and bodyweight effects of GIPR coding variation reflect differences in surface expression and intrinsic functional impairment” (Science Advances, 2026).
# Assays:
# Assay type in all cases: cell-based, human
# [1] = system: wild-type and variant SNAP-GIPR; test: cADDis cAMP imaging in AD293 cells, ensemble, expression-matched and per decile
# In short: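 Per-cell cAMP from cADDis intensity over time, with cells excluded by IBMX/FSK response criteria. Expression matching used wild-type surface-SNAP deciles, top and bottom trimmed, mean of decile means. Ensemble values ignore deciles. Wide-field imaging at 37 °C in KRBH with 6 mM glucose, 0.1% BSA, 24 h post-transfection in AD293.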
# [2] = system: wild-type and variant SNAP-GIPR; test: Single-concentration GIP cAMP response by HTRF in AD293 cells; details: for HTRF cAMP: 100 nM GIP, AD293, 30 min, mean, n=8
# Description: All variants were tested in parallel on each occasion to control for transfection efficiency differences between experiments.
# [3] = system: wild-type and variant SNAP-GIPR; test: Constitutive and agonist-mediated internalization, reversible SNAP-tag labelling, AD293 cells; details: 100 nM GIP
# In short: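 Surface SNAP-GIPR signal removable by Mesna was tracked by imaging before and 10 min after treatment in pH 8.6 TNE buffer. Internalization is the Mesna-resistant share of specific fluorescence.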
compound,measurement,setting,value
"CC[C@H](C)[C@H](NC(=O)[C@H](CO)NC(=O)[C@H](Cc1ccc(O)cc1)NC(=O)[C@H](CC(=O)O)NC(=O)[C@H](CO)NC(=O)[C@@H](NC(=O)[C@H](Cc1ccccc1)NC(=O)[C@@H](NC(=O)CNC(=O)[C@H](CCC(=O)O)NC(=O)[C@H](C)NC(=O)[C@@H](N)Cc1ccc(O)cc1)[C@@H](C)O)[C@@H](C)CC)C(=O)N[C@@H](C)C(=O)N[C@@H](CCSC)C(=O)N[C@@H](CC(=O)O)C(=O)N[C@@H](CCCCN)C(=O)N[C@H](C(=O)N[C@@H](Cc1c[nH]cn1)C(=O)N[C@@H](CCC(N)=O)C(=O)N[C@@H](CCC(N)=O)C(=O)N[C@@H](CC(=O)O)C(=O)N[C@@H](Cc1ccccc1)C(=O)N[C@H](C(=O)N[C@@H](CC(N)=O)C(=O)N[C@@H](Cc1c[nH]c2ccccc12)C(=O)N[C@@H](CC(C)C)C(=O)N[C@@H](CC(C)C)C(=O)N[C@@H](C)C(=O)N[C@@H](CCC(N)=O)C(=O)N[C@@H](CCCCN)C(=O)NCC(=O)N[C@@H](CCCCN)C(=O)N[C@@H](CCCCN)C(=O)N[C@@H](CC(N)=O)C(=O)N[C@@H](CC(=O)O)C(=O)N[C@@H](Cc1c[nH]c2ccccc12)C(=O)N[C@@H](CCCCN)C(=O)N[C@@H](Cc1c[nH]cn1)C(=O)N[C@@H](CC(N)=O)C(=O)N[C@H](C(=O)N[C@H](C(=O)N[C@@H](CCC(N)=O)C(=O)O)[C@@H](C)O)[C@@H](C)CC)C(C)C)[C@@H](C)CC [GIP, glucose-dependent insulinotropic polypeptide, reference compound]",cADDis cAMP response at low own expression,"[1]; AD293, 100 pM GIP, E354Q (lesser extent A207V, E252D, A268V)",increased responses relative to the wild type
same,"cADDis cAMP response, expression-matched","[1]; AD293, 100 pM GIP, R101H, S64A, R217L, L262H, L304R",at least partly restored to wild-type levels
same,cADDis cAMP response at highest own expression,"[1]; AD293, 100 pM GIP, R136W, R131S, T116R, S64A",wild type–like responses
same,"cADDis cAMP response, expression-matched","[1]; AD293, 100 pM GIP, all variants with reduced ensemble response",still showed LoF
same,"cADDis cAMP response, expression-matched","[1]; AD293, 100 pM and 100 nM GIP, R183Q, R190Q, D66G, E288G",no rescue of function
same,HTRF cAMP,[2]; A207V,1.3964 vs. experimental average
same,HTRF cAMP,[2]; A268V,1.283 vs. experimental average
same,cAMP response,"[2]; AD293, 100 pM GIP, E252D and A268V",GoF cAMP responses
same,cAMP response,"[2]; AD293, 100 pM GIP, E354Q",increased response
same,cAMP response,"[2]; AD293, 100 pM GIP, R136W and R131S",reduced cAMP response
same,cAMP response,"[2]; AD293, 100 pM and 100 nM GIP, 10 variants with lowest surface expression",reduced cAMP responses
same,cAMP response at higher concentration,"[2]; AD293, 100 nM GIP, S64A, R217L, L262H",at least a partially restored response
same,HTRF cAMP,[2]; D66G,0.328 vs. experimental average
same,HTRF cAMP,[2]; E252D,1.787 vs. experimental average
same,HTRF cAMP,[2]; E288G,0.3648 vs. experimental average
same,HTRF cAMP,[2]; E354Q,1.4229 vs. experimental average
same,HTRF cAMP,[2]; E463Q,1.311 vs. experimental average
same,HTRF cAMP,[2]; G438S,1.655 vs. experimental average
same,HTRF cAMP,[2]; I378M,1.479 vs. experimental average
same,HTRF cAMP,[2]; I403V,1.595 vs. experimental average
same,HTRF cAMP,[2]; L100F,1.598 vs. experimental average
same,HTRF cAMP,[2]; L262H,1.14 vs. experimental average
same,HTRF cAMP,[2]; L262V,1.331 vs. experimental average
same,HTRF cAMP,[2]; L304R,0.7364 vs. experimental average
same,HTRF cAMP,[2]; R101H,0.2474 vs. experimental average
same,HTRF cAMP,[2]; R131S,1.306 vs. experimental average
same,HTRF cAMP,[2]; R136W,1.324 vs. experimental average
same,HTRF cAMP,[2]; R183Q,0.2411 vs. experimental average
same,HTRF cAMP,[2]; R190Q,0.2205 vs. experimental average
same,HTRF cAMP,[2]; R196G,1.594 vs. experimental average
same,HTRF cAMP,[2]; R217L,1.142 vs. experimental average
same,HTRF cAMP,[2]; R300W,1.632 vs. experimental average
same,HTRF cAMP,[2]; R336P,1.143 vs. experimental average
same,HTRF cAMP,[2]; R341P,0.1915 vs. experimental average
same,HTRF cAMP,[2]; R404H,1.255 vs. experimental average
same,HTRF cAMP,[2]; S64A,1.061 vs. experimental average
same,HTRF cAMP,[2]; S415G,1.323 vs. experimental average
same,HTRF cAMP,[2]; S415I,1.113 vs. experimental average
same,HTRF cAMP,[2]; S447T,1.418 vs. experimental average
same,HTRF cAMP,[2]; T116R,1.485 vs. experimental average
same,HTRF cAMP,[2]; WT,1.495 vs. experimental average
same,GIP-induced increase in internalization,"[3]; R190Q, R101H, E288G, D66G, R183Q, either/both AD293 and INS-1",statistically significant reductions in internalization
same,internalization,"[3]; most variants, AD293 and INS-1",wild type–like internalization
